How the values were obtained:
[1] = tested on: primary cortical neuron cells; assay: Intracellular calcium concentration in neuronal cells (fluo-4 AM fluorescence imaging); format: cell-based; settings: CBDA (6.25 μM), THCA (12.5 μM), THC (12.5 μM) with Aβ1-42 (5 μM), 24 hours; compared to Aβ1-42 alone; FIG. 8 and 9
Experimental: Specifically, primary cortical neuron cells were seeded in 96-wells at 5×10^5 cells per well and cultured for 6 days. […] Next, to measure the concentration of calcium ions in neuronal cells by detecting Ca^2+ using fluorescence imaging, the cells were washed with PBS and treated with 10 μM Ca^2+ indicator fluo-4 AM (Thermo) for […]. The stained sections were washed with PBS, covered with Prolong Gold Antifide Reagent (Invitrogen, Carlsbad, CA, USA) including DAPI nuclear stain, and observed using a microscope (Carl Zeiss, Oberkochen, Germany). Fluo-4 AM fluorescence signal intensity was measured using the Image J analysis program (National Institute of Health, Bethesda, […], USA).

[2] = tested on: APP (Amyloid Precursor Protein); assay: Western blotting of APP expression in Aβ1-42-treated primary neuronal cells; format: cell-based, ICR mice; settings: CBDA (6 μM) or THCA (5 μM), with Aβ1-42 (5 μM), 24 hours; FIG. 6
Experimental: Specifically, primary neuronal cells derived from ICR mice were cultured for 6 days, and then treated with CBDA, THCA, THC, or CBN compounds while treating with Aβ1-42 (5 μM), and treated together for 24 hours. Next, Western blotting was conducted to confirm the expression levels of APP (Amyloid Precursor Protein), polymeric Aβ, and oligomeric AB in the cells.
To conduct Western blotting, tissues were homogenized in radioimmunoprecipitation assay buffer (Cell Signaling) to acquire tissue lysates. Tissue protein concentrations were determined using the Bio-Rad protein assay (Bio-Rad, Hercules, CA, USA), and Western blot analysis was conducted using 80-120 μg of protein. Next, the Western blotting samples prepared using the proteins were separated using 12% SDS-PAGE and transferred to a polyvinylidene fluoride membrane (PVDF) (Merck Millipore, Burlington, MA, USA; 0.4 μm). The PVDF was blocked with tris-buffered saline including 5% bovine serum albumin and Tween-20, and incubated with primary antibodies overnight at 4° C. After primary antibody incubation, the samples were incubated with HRP-conjugated secondary antibody (Sigma; 1:5000) for 1 hour at room temperature, and immunodetection was conducted using an enhanced chemiluminescence detection kit (GE Healthcare, Chicago, IL, USA).

SMILES	intracellular calcium ion concentration [1]	expression level of APP [2]
C=C(C)[C@@H]1CCC(C)=C[C@H]1c1c(O)cc(CCCCC)c(C(=O)O)c1O [CBDA]	significantly reduced	significantly reduced
CCCCCc1cc2c(c(O)c1C(=O)O)[C@@H]1C=C(C)CC[C@H]1C(C)(C)O2 [THCA, (6aR, 10aR)-1-Hydroxy-6,6,9-trimethyl-3-pentyl-6a,7,8,10a-tetrahydro-6H-benzo[c]chromene-2-carboxylic acid]	significantly reduced	significantly reduced
